Measured values from the Deep4Chem optical property database.

Assay: solvent given as SMILES

`C(=C\c1ccc(-n2c3ccccc3c3ccccc32)cc1)/c1ccc(-c2ccc(/C=C/c3ccc(-n4c5ccccc5c5ccccc54)cc3)cc2)cc1` gave a fluorescence lifetime (in Cc1ccccc1) of 0.87 ns and a fluorescence lifetime (in c1ccc2c(c1)c1ccccc1n2-c1ccc(-c2ccc(-n3c4ccccc4c4ccccc43)cc2)cc1) of 1.3 ns.

Work on `CCCCCCCCCCOc1cc2cc(C#Cc3ccc(/C=C(\C#N)C(=O)O)cc3)c(=O)oc2cc1OCCCCCCCCCC` yielded a fluorescence lifetime (in CC#N) of 1.1 ns.

`Cc1sc(-c2ccc(-c3nc(-c4ccccc4)c(-c4ccccc4)[nH]3)cc2)c(C)c1C1=C(c2c(C)n(C)c3ccccc23)C(F)(F)C(F)(F)C1(F)F` showed a fluorescence lifetime (in C1CCOC1) of 0.48 ns.

Work on `COc1nnc(Cl)nn1` yielded a fluorescence lifetime (in ClCCl) of 160 ns.

Work on `O=C1c2ccccc2C(=O)c2cc(-c3ccc(N(c4ccccc4)c4ccccc4)cc3)ccc21` yielded a fluorescence lifetime (in CCCCCC) of 5.51 ns, a fluorescence lifetime (in CCOC(C)=O) of 0.15 ns and a fluorescence lifetime (in CCOCC) of 2.81 ns. For the same compound, the fluorescence lifetime (in Cc1ccccc1) was 6.79 ns and the fluorescence lifetime (in ClC(Cl)(Cl)Cl) was 8.82 ns.

Work on `Fc1c(F)c(-n2c3ccccc3c3ccccc32)c(F)c(-n2c3ccccc3c3ccccc32)c1-c1nnc(-c2ccccc2)o1` yielded a fluorescence lifetime (in Cc1ccccc1) of 4.8 ns.

`c1ccc(-c2nnc(-c3ccc(N4c5ccccc5N(c5ccccc5)c5ccccc54)cc3)o2)cc1` showed a fluorescence lifetime (in Cc1ccccc1) of 9 ns and a fluorescence lifetime (in c1cc(-n2c3ccccc3c3ccccc32)cc(-n2c3ccccc3c3ccccc32)c1) of 7 ns.

`CCN(CC)c1ccc(-c2cc3c(s2)c(C(=O)OC)cc(=O)n3C)cc1` showed a fluorescence lifetime (in ClCCl) of 6.59 ns.

`COc1ccc(-c2nc3c(c4c2-c2ccccc2CC4)-c2ccccc2CC3)cc1` gave a fluorescence lifetime (in CC#N) of 1.44 ns, a fluorescence lifetime (in CCCCCC) of 0.45 ns and a fluorescence lifetime (in CO) of 0.36 ns. It also gave a fluorescence lifetime (in CS(C)=O) of 0.67 ns and a fluorescence lifetime (in ClCCl) of 0.25 ns.

For `CC(C)[Si]1(C(C)C)c2cc(C=C(C#N)C#N)ccc2-c2ccc(N(C)C)cc21`, the fluorescence lifetime (in C1CCCCC1) was 0.3 ns and the fluorescence lifetime (in ClCCl) was 3.2 ns.

In the case of `CC(C)(C)c1ccc(C2=C(c3ccc(-n4c5ccc(C(C)(C)C)cc5c5cc(C(C)(C)C)ccc54)cc3)S(=O)(=O)c3c2sc(-c2ccc(-n4c5ccc(C(C)(C)C)cc5c5cc(C(C)(C)C)ccc54)cc2)c3-c2ccc(C(C)(C)C)cc2)cc1`, the fluorescence lifetime (in C1CCOC1) was 1.1 ns.

`Cn1nc(-c2ccccc2)c2nc3cc(Cl)ccc3nc21` showed a fluorescence lifetime (in C1CCCCC1) of 23.9 ns, a fluorescence lifetime (in C1CCOC1) of 20.1 ns and a fluorescence lifetime (in CC#N) of 7.74 ns.

`CC(C)(C)c1ccc2c(c1)B1c3cc(C(C)(C)C)ccc3Oc3cc(N4c5ccccc5C(C)(C)c5ccccc54)cc(c31)O2` gave a fluorescence lifetime (in Cc1ccccc1) of 6.6 ns.

For `COC(=O)C(NC(=O)OC(C)(C)C)c1ccc2oc(-c3ccc(OC(=O)c4ccccc4)cc3OC(=O)c3ccccc3)nc2c1` (stereo unspecified), the fluorescence lifetime (in CC1CCCCC1) was 0.358 ns, the fluorescence lifetime (in CC#N) was 0.003 ns and the fluorescence lifetime (in CO) was 0.01 ns.

With `CCOC(=O)c1ccc2c(c1)[nH]c1c3ccc(C(=O)OCC)cc3[nH]c21` the fluorescence lifetime (in CCCO) was 4.75 ns.

`O=C(O)CCCCCn1c2ccccc2c(=O)c2cc(S(=O)(=O)O)ccc21` gave a fluorescence lifetime (in O) of 13 ns.

Compound `COC(=O)c1c(C(=O)OC)c2ccc(C)nn2c1C` has a fluorescence lifetime (in CCCCCC) of 14.1 ns.

Work on `c1ccc(-c2nc(-c3ccccc3)nc(-c3ccc(-n4c5ccccc5c5cc6c(cc54)c4ccccc4n6-c4ccccc4)cc3)n2)cc1` yielded a fluorescence lifetime (in O=P(c1ccccc1)(c1ccccc1)c1ccc2oc3ccc(P(=O)(c4ccccc4)c4ccccc4)cc3c2c1) of 13.4 ns.

For `Cc1nnc(-c2cc(-n3c4ccccc4c4ccccc43)c(-n3c4ccccc4c4ccccc43)cc2-c2nnc(C)o2)o1`, the fluorescence lifetime (in Cc1ccccc1) was 14.5 ns.

`CC(C)(C)NC(=O)c1ccc(-c2ccc(N3c4ccccc4Oc4ccccc43)cc2)c2ccc3c4ccc(F)cc4c4cc(F)ccc4c3c12` showed a fluorescence lifetime (in ClCCl) of 89.3 ns.

Compound `CCCCCCCCCCOc1ccc(C#Cc2cc3c(C#Cc4ccc(OCCCCCCCCCC)cc4)c(C#Cc4ccc(OCCCCCCCCCC)cc4)c4cc(C#Cc5ccc(OCCCCCCCCCC)cc5)cc5c(C#Cc6ccc(OCCCCCCCCCC)cc6)c(C#Cc6ccc(OCCCCCCCCCC)cc6)c(c2)c3c45)cc1` has a fluorescence lifetime (in ClCCl) of 15.3 ns.

In the case of `O=P1(c2ccccc2)C2=C(c3ccccc31)S(=O)(=O)c1ccccc12` (stereo unspecified), the fluorescence lifetime (in ClCCl) was 12.9 ns.

`COC(=O)C[C@H](Cc1c[nH]c2ccccc12)NC(=O)[C@H](CC(=O)N[C@@H](CC1=CCc2ccccc21)C(=O)OC)NC(=O)[C@H](Cc1c[nH]c2ccccc12)NC(=O)OC(C)(C)C` gave a fluorescence lifetime (in CC#N) of 2.67 ns, a fluorescence lifetime (in CCOC(C)=O) of 2.08 ns and a fluorescence lifetime (in CO) of 1.86 ns.

Compound `C=CC(=O)Oc1ccc2cc(C=C)c(=O)oc2c1` has a fluorescence lifetime (in CC#N) of 2.81 ns.
